Converted amounts (≈) assume the structure as drawn. Read-outs that look alike come from different tables or passages of the source. No end group written: not given here.
Columns and labels:
[1] = tested on: human red blood cells (hRBC's); test: Hemolysis assay; assay type: cell-based
Experimental: Freshly drawn human red blood cells (hRBC's) with additive K2 EDTA (spray-dried) were washed with PBS buffer several times and centrifuged at 1000 g for 10 min until a clear supernatant was observed. The hRBC's were resuspended in 1×PBS to get a 5% v/v suspension. Two-fold serial dilutions of γ-AApeptides dissolved in 1×PBS from 250 μg/ml through 1.6 μg/ml were added to a sterile 96-well plate to make up a total volume of 50 μL in each well. Then 50 μL of 5% v/v hRBC solution was added to make up a total volume of 100 μL in each well. The 0% hemolysis point and 100% hemolysis point were determined in 1×PBS and 0.2% Triton-X-100, respectively (Patch et al., 2003). The plate was then incubated at 37° C. for 1 h and centrifuged at 3500 rpm for 10 min. The supernatant (30 μL) was diluted with 100 μL of 1×PBS and absorption was detected by measuring the optical density at 360 nm by Biotek Synergy HT microtiter plate reader. % hemolysis was determined by the following equation: % hemolysis=(Abssample−AbsPBS)/(AbsTriton−AbsPBS)×100 H50 is the concentration of γ-AApeptide amphiphiles at which 50% hemolysis was observed. The highest concentration tested in the hemolytic assay was 500 μg/ml. 7. Fluorescence Microscopy
The sequences shown in FIG. 12 were also evaluated via hemolytic assays. Freshly drawn human red blood cells (hRBC's) with additive K2 EDTA (spray-dried) were washed with PBS buffer several times and centrifuged at 1000 g for 10 min until a clear supernatant was observed. The hRBC's were resuspended in 1×PBS to get a 5% v/v suspension. Two-fold serial dilutions of lipidated γ-AApeptides dissolved in 1×PBS from 1 mg/ml through 6.3 μg/ml were added to sterile 96-well plates to make up a total volume of 50 μL in each well. Then 50 μL of 5% v/v hRBC solution was added to make up a total volume of 100 μL in each well. The 0% hemolysis point and 100% hemolysis point were determined in 1×PBS and 0.2% Triton-X-100, respectively (Patch et al., 2003). The plate was then incubated at 37° C. for 1 h and centrifuged at 3500 rpm for 10 min. The supernatant (30 μL) was diluted with 100 μL of 1×PBS and absorption was detected by measuring the optical density at 360 nm with a Biotek Synergy HT microtiter plate reader. % hemolysis was determined by the following equation: % hemolysis=(Abs sample−Abs PBS)/(Abs Triton−Abs PBS)×100

[2] = tested on: multi-drug resistant S. epidermidis (RP62A)
[3] = tested on: vancomycin-resistant E. faecalis (ATCC 700802)
[4] = tested on: methicillin-resistant S. aureus (ATCC 33592)
B. anthracis = settings: Table 1
S. aureus ATCC 33592 = assay type: cell-based; settings: serial passage at half-MIC
[5] = tested on: Gram-positive and Gram-negative bacteria and the fungus C. albicans; test: Antimicrobial assays, whole panel (statements in words); assay type: cell-based
[6] = tested on: K. pneumoniae (ATCC 13383)
[7] = tested on: multi-drug resistant P. aeruginosa ATCC 27853; settings: ATCC 27853
[8] = tested on: human red blood cells (hRBC's); settings: cited from earlier work

| Compound | Hemolysis (H50) [1] [µg/mL] | MIC, E. coli (E. coli (JM109)) [µg/mL] | MIC, B. subtilis (B. subtilis (BR151)) [µg/mL] | MIC, S. epidermidis (multi-drug resistant) ([2]; Table 1) [µg/mL] | MIC, E. faecalis (vancomycin-resistant) ([3]; Table 1) [µg/mL] | MIC, S. aureus (methicillin-resistant) ([4]; Table 1) [µg/mL] | MIC, Fungi C. albicans (C. albicans (ATCC 10231); ATCC 10231, 48 h) [µg/mL] | MIC, K. pneumoniae (causing pneumonia) [6] [µg/mL] | also measured |
| --- | --- | --- | --- | --- | --- | --- | --- | --- | --- |
| CC(C)C[C@@H](CN(CC(=O)N[C@@H](CCCCN)CN(CC(=O)N[C@@H](CCCCN)CN(CC(=O)N[C@@H](CCCCN)CN(CC(N)=O)C(=O)CCc1ccccc1)C(=O)CCc1ccccc1)C(=O)CCc1ccccc1)C(=O)CCc1ccccc1)NC(=O)CN(C[C@H](CCCCN)NC(=O)CN(C[C@H](CCCCN)NC(=O)CN(C[C@@H](N)CCCCN)C(=O)CCc1ccccc1)C(=O)CCc1ccccc1)C(=O)CCc1ccccc1 [γ4] | >500 | 2.5 to 5 | 2.5 (≈ 1.18 µM) | 3.1 to 6.25 | 12.5 to 25 | 3.1 to 6.25 | 12.5 to 25 | – | MIC, B. anthracis (lethal bioweapon) (B. anthracis): 25 to 50 µg/mL |
| CCn1cc(C(=O)O)c(=O)c2cc(F)c(N3CCNCC3)cc21 [norfloxacin, reference compound] | – | – | – | – | – | – | – | – | passages after which the MIC started to increase (S. aureus ATCC 33592): three |
| KFKFKFKFKFKFKF-NH2 [pl, reference compound] | >500 | >100 | >100 | >100 | >100 | >100 | >100 | >100 | antimicrobial activity against the tested panel, in words [5]: does not show any antimicrobial activity at all |
| CCCCCCCC/C=C\CCCCCCCC(=O)N[C@@H](CCCCN)CN(CC(N)=O)C(=O)CCCN [γAA7] | >500 | 2.5 (≈ 4.65 µM) | 2 (≈ 3.72 µM) | – | – | – | – | 50 (≈ 93 µM) | MIC, P. aeruginosa [7]: 2.5 µg/mL (≈ 4.65 µM); MIC, S. epidermidis (multi-drug resistant) ([2]; Table 3): 1 µg/mL (≈ 1.86 µM); MIC, E. faecalis (vancomycin-resistant) ([3]; Table 3): 2.5 µg/mL (≈ 4.65 µM); MIC, S. aureus (methicillin-resistant) ([4]; Table 3): 5 µg/mL (≈ 9.3 µM); MIC, Fungi C. albicans (C. albicans (ATCC 10231); ATCC 10231): 1.5 µg/mL (≈ 2.79 µM) |
| GIGKFLKKAKKFGKAFVKILKK-NH2 [Pexiganan, pexiganan] | – | – | – | – | – | – | – | – | Hemolysis (H50) [8]: >500 µg/mL; Hemolysis H10 [8]: 181 µg/mL; Hemolysis H50 [8]: 495 µg/mL |

From US10308686B2, “Gamma-AApeptides with potent and broad-spectrum antimicrobial activity” (priority 2012, dated 2019)
